Literature values, collected in patent US20020015956A1, “Compositions and methods for the identification, assessment, prevention, and therapy of human cancers” (priority 2000, published 2002).

System: tumor
Conditions: animal models

CC(=O)O[C@@]12CO[C@@H]1C[C@H](O)[C@@]1(C)C(=O)[C@H](O)C3=C(C)[C@@H](OC(=O)[C@H](O)[C@@H](NC(=O)OC(C)(C)C)c4ccccc4)C[C@@](O)([C@@H](OC(=O)c4ccccc4)[C@H]21)C3(C)C [Taxotere, docetaxel]
anti-tumor activity: good anti-tumor activity
